These results are taken from patent publication US7998989B2, “2-Imino-1,3-thiazoline-based compounds and T-type calcium channel inhibitors containing the same” (Korea Institute of Science and Technology, priority 2007, dated 2011).

For series [1], the target named is T1, α1G T-type calcium channel (Homo sapiens, UniProt O43497).
T1 construct: host or cells: HEK293
The series can be described thus: Assay for % inhibiting activity against T-type calcium channel using FDSS6000 (fluo-3 calcium imaging, KCl activation). The format is cell-based. To be noted: HEK293 cells stably expressing α1G T-type calcium channel and Kir2.1, compounds of the examples; for inhibition at 10 µM: HEK293, 10 μM, read-out: FDSS (% inhibition)/10uM. The essentials:
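Percent inhibition derived from […] area against untreated control (100%), after 75 s compound pre-exposure and 75 mM KCl activation. Cells: HEK293 with stable α1G plus Kir2.1, fluo-3/AM-labelled (5 μM), assayed in pH 7.4 HEPES containing 10 mM CaCl2.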

Molecules are shown by their SMILES.

T1 sequence (O43497 whole entry): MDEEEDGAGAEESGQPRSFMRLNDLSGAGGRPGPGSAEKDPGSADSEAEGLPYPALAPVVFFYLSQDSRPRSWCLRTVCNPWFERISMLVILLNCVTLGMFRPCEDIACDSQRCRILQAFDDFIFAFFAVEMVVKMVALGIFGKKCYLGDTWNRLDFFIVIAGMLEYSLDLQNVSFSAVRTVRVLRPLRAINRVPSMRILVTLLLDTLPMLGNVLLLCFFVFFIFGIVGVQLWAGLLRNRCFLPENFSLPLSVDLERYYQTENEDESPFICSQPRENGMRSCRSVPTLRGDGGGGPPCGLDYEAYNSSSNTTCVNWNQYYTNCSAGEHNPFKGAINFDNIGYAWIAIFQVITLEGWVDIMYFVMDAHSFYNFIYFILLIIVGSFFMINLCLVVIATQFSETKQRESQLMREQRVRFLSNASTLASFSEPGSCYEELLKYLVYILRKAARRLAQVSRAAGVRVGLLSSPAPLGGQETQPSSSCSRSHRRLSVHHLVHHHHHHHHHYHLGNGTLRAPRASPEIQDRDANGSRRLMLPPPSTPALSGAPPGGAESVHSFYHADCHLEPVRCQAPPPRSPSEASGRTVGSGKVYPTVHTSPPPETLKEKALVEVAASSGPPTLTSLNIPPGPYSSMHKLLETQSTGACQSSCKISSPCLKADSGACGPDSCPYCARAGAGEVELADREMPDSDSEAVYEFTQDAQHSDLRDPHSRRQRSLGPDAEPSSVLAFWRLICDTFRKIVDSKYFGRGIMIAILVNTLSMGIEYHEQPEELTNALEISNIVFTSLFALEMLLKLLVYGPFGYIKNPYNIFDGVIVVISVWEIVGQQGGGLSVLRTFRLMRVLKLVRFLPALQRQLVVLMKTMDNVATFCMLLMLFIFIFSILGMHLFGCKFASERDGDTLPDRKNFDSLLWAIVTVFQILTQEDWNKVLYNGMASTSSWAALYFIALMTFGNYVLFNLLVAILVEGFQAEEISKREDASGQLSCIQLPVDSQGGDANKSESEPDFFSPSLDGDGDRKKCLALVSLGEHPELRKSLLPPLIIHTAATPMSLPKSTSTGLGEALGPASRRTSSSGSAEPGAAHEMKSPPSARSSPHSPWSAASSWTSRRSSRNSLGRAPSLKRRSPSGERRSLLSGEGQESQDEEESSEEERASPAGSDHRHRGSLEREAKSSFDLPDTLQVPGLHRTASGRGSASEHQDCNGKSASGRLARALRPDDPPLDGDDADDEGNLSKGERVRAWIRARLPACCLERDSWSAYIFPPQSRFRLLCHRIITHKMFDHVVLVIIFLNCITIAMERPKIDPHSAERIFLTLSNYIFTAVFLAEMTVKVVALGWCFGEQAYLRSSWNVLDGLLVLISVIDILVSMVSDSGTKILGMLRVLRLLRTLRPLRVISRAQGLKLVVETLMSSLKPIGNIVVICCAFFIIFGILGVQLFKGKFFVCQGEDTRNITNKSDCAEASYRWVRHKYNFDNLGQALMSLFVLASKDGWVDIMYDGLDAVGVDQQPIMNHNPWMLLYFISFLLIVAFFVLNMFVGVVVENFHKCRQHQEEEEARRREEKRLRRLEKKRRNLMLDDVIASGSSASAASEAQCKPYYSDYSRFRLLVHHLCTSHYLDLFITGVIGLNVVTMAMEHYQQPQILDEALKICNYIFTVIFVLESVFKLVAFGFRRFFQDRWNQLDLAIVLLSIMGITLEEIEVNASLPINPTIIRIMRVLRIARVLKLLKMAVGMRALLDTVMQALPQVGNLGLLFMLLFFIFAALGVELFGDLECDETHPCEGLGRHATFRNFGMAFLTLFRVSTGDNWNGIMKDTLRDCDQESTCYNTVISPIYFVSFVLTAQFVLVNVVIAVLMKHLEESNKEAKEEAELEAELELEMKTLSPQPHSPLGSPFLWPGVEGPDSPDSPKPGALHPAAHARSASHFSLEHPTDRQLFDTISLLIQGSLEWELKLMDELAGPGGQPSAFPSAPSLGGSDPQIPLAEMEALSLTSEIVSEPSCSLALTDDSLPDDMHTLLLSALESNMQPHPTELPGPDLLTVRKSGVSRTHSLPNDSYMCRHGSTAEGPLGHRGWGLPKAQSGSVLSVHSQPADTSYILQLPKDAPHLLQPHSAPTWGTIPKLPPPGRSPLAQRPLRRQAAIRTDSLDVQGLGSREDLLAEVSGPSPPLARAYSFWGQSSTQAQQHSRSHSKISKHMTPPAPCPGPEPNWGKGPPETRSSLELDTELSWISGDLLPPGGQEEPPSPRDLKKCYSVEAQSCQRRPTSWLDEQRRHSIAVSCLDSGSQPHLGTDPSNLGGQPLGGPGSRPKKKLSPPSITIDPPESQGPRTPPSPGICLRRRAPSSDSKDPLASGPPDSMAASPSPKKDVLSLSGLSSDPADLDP

Take `CC1SC(=NC2CCCCC2)N(C)C1CC(=O)Nc1ccc(Cl)cc1` (stereo not shown) [KHG24480, (2-cyclohexylimino-3,5-dimethyl-1,3-thiazolidine-4-yl)-N-(4-chlorophenyl)-acetamide]: the melting point (commonly the temperature of the solid-liquid transition) lay within 262 to 264 °C. Further, the inhibition at 10 µM in series [1] came out at 51.6%.

Molecule `CC1SC(=NC2CCCCC2)N(C)C1CC(=O)Nc1ccc(Br)cc1` (stereo not shown) [KHG24482, (2-cyclohexylimino-3,5-dimethyl-1,3-thiazolidine-4-yl)-N-(4-bromophenyl)-acetamide] registered a melting point of 260 to 262 °C. Also, the inhibition at 10 µM in series [1] was 52.4%.

`CC1SC(=NC2CCCCC2)N(C)C1CC(=O)Nc1cc(Cl)cc(Cl)c1` (stereo not shown) [KHG24483, (2-cyclohexylimino-3,5-dimethyl-1,3-thiazolidine-4-yl)-N-(3,5-dichlorophenyl)-acetamide] registered a melting point of 264 to 265 °C. Also, in series [1], the inhibition at 10 µM worked out at 52.5%.

`CC1SC(=NC2CCCCC2)N(C)C1CC(=O)Nc1cc([N+](=O)[O-])ccc1F` (stereo not shown) [KHG24484, (2-cyclohexylimino-3,5-dimethyl-1,3-thiazolidine-4-yl)-N-(2-fluoro-5-nitrophenyl)-acetamide] came in with a melting point of 249 to 251 °C. Moreover, in series [1], the inhibition at 10 µM was 32.8%.

Turning to `CC1SC(=NC2CCCCCC2)N(C)C1CC(=O)Nc1ccc(Br)cc1` (stereo not shown) [KHG24486, (2-cycloheptylimino-3,5-dimethyl-1,3-thiazolidine-4-yl)-N-(4-bromophenyl)-acetamide], the melting point fell in the range of 253 to 254 °C. Besides, the inhibition at 10 µM in series [1] turned out to be 55.8%.

Molecule `CCCCc1ccc(NC(=O)CC2C(C)SC(=NC3CCCCCC3)N2C)cc1.Cl` (stereo not shown) [KHG24516, (2-cycloheptylimino-3,5-dimethyl-1,3-thiazolidine-4-yl)-N-(4-n-butylphenyl)-acetamide hydrochloride] had a melting point of 247 to 249 °C. In addition, the inhibition at 10 µM in series [1] was 54.6%.

In the case of `CCc1ccc(NC(=O)CC2C(C)SC(=NC3CCCCCC3)N2C)cc1.Cl` (stereo not shown) [KHG24517, (2-cycloheptylimino-3,5-dimethyl-1,3-thiazolidine-4-yl)-N-(4-ethylphenyl)-acetamide hydrochloride], the melting point lay in the range of 262 to 264 °C. Moreover, the inhibition at 10 µM in series [1] is 49.6%.

Turning to `CC1SC(=NC2CCCCCC2)N(C)C1CC(=O)Nc1ccc(F)cc1.Cl` (stereo not shown) [KHG24518, (2-cycloheptylimino-3,5-dimethyl-1,3-thiazolidine-4-yl)-N-(4-fluorophenyl)-acetamide hydrochloride], the melting point fell in the range of 229 to 231 °C. Besides, the inhibition at 10 µM in series [1] stood at 50.7%.

In turn, `CC(C)c1ccc(NC(=O)CC2C(C)SC(=NC3CCCCCC3)N2C)cc1.Cl` (stereo not shown) [KHG24519, (2-cycloheptylimino-3,5-dimethyl-1,3-thiazolidine-4-yl)-N-(4-isopropylphenyl)-acetamide hydrochloride] gave a melting point of 260 to 262 °C. The inhibition at 10 µM in series [1] was determined as 55.7%.

Molecule `CC1SC(=NC2CCCCCC2)N(C)C1CC(=O)Nc1ccc(C(F)(F)F)cc1.Cl` (stereo not shown) [KHG24520, (2-cycloheptylimino-3,5-dimethyl-1,3-thiazolidine-4-yl)-N-(4-trifluoromethylphenyl)-acetamide hydrochloride] registered a melting point of 261 to 263 °C. In series [1], the inhibition at 10 µM turned out to be 64.8%.

Turning to `CC1SC(=NC2CCCCCC2)N(C)C1CC(=O)Nc1ccc(C(C)(C)C)cc1.Cl` (stereo not shown) [KHG24521, (2-cycloheptylimino-3,5-dimethyl-1,3-thiazolidine-4-yl)-N-(4-t-butylphenyl)-acetamide hydrochloride], the melting point was in the range of 239 to 241 °C. In series [1], the inhibition at 10 µM was 54.3%.

In turn, `CC1SC(=NC2CCCCC2)N(C)C1CC(=O)Nc1cc(CF)cc(CF)c1.Cl` (stereo not shown) [KHG24522, (2-cyclohexylimino-3,5-dimethyl-1,3-thiazolidine-4-yl)-N-(3,5-difluoromethylphenyl)-acetamide hydrochloride] showed a melting point of 244 to 246 °C. Moreover, the inhibition at 10 µM in series [1] was determined as 47.9%.

`CCc1ccc(NC(=O)CC2C(C)SC(=NC3CCCCC3)N2C)cc1.Cl` (stereo not shown) [KHG24523, (2-cyclohexylimino-3,5-dimethyl-1,3-thiazolidine-4-yl)-N-(4-ethylphenyl)-acetamide hydrochloride] displayed a melting point of 265 to 266 °C. For the same molecule, the inhibition at 10 µM in series [1] worked out at 46.3%.

The molecule `CC1SC(=NC2CCCCC2)N(C)C1CC(=O)Nc1ccc(OC(F)(F)F)cc1.Cl` (stereo not shown) [KHG24524, (2-cyclohexylimino-3,5-dimethyl-1,3-thiazolidine-4-yl)-N-(4-trifluoromethoxyphenyl)-acetamide hydrochloride] returned a melting point of 178 to 180 °C. Further, in series [1], the inhibition at 10 µM turned out to be 41.3%.

Molecule `CC1SC(=NC2CCCCC2)N(C)C1CC(=O)Nc1ccc(F)cc1.Cl` (stereo not shown) [KHG24525, (2-cyclohexylimino-3,5-dimethyl-1,3-thiazolidine-4-yl)-N-(4-fluorophenyl)-acetamide hydrochloride] yielded a melting point of 267 to 269 °C. In addition, the inhibition at 10 µM in series [1] amounted to 31.5%.

`CC(C)c1ccc(NC(=O)CC2C(C)SC(=NC3CCCCC3)N2C)cc1.Cl` (stereo not shown) [KHG24526, (2-cyclohexylimino-3,5-dimethyl-1,3-thiazolidine-4-yl)-N-(4-isopropylphenyl)-acetamide hydrochloride]: the melting point lay within 265 to 267 °C. In addition, in series [1], the inhibition at 10 µM was 42.3%.

With `CC1SC(=NC2CCCCC2)N(C)C1CC(=O)Nc1ccc(C(F)(F)F)cc1.Cl` (stereo not shown) [KHG24527, (2-cyclohexylimino-3,5-dimethyl-1,3-thiazolidine-4-yl)-N-(4-trifluoromethylphenyl)-acetamide hydrochloride], the melting point lay within 190 to 192 °C. Also, in series [1], the inhibition at 10 µM stood at 47%.

As to `CC(C)c1cccc(NC(=O)CC2CSC(=NC3CCCCC3)N2C)c1.Cl` (stereo not shown) [KHG24528, (2-cyclohexylimino-3-methyl-1,3-thiazolidine-4-yl)-N-(3-isopropylphenyl)-acetamide hydrochloride], the melting point worked out at 160 °C. The inhibition at 10 µM in series [1] came to 54.2%.

For the molecule `CN1C(=NC2CCCCC2)SCC1CC(=O)Nc1cccc(Cl)c1Cl.Cl` (stereo not shown) [KHG24530, (2-cyclohexylimino-3-methyl-1,3-thiazolidine-4-yl)-N-(2,3-dichlorophenyl)-acetamide hydrochloride], the melting point came to 215 °C. In series [1], the inhibition at 10 µM was 38.5%.

Turning to `CN1C(=NC2CCCCC2)SCC1CC(=O)Nc1ccc(Cl)c(Cl)c1.Cl` (stereo not shown) [KHG24531, (2-cyclohexylimino-3-methyl-1,3-thiazolidine-4-yl)-N-(3,4-dichlorophenyl)-acetamide hydrochloride], the melting point is 223 °C. Moreover, the inhibition at 10 µM in series [1] worked out at 48.4%.

Take `CN1C(=NC2CCCCC2)SCC1CC(=O)Nc1cc(Cl)ccc1Cl.Cl` (stereo not shown) [KHG24532, (2-cyclohexylimino-3-methyl-1,3-thiazolidine-4-yl)-N-(2,5-dichlorophenyl)-acetamide hydrochloride]: the melting point worked out at 208 °C. Also, the inhibition at 10 µM in series [1] was 52.5%.

`CN1C(=NC2CCCCC2)SCC1CC(=O)Nc1cc(Cl)c(Cl)cc1Cl.Cl` (stereo not shown) [KHG24533, (2-cyclohexylimino-3-methyl-1,3-thiazolidine-4-yl)-N-(2,4,5-trichlorophenyl)-acetamide hydrochloride]: the melting point came out at 186 °C. Besides, the inhibition at 10 µM in series [1] turned out to be 48.9%.

The molecule `CN1C(=NC2CCCCC2)SCC1CC(=O)Nc1cc(F)cc(F)c1.Cl` (stereo not shown) [KHG24534, (2-cyclohexylimino-3-methyl-1,3-thiazolidine-4-yl)-N-(3,5-difluorophenyl)-acetamide hydrochloride] registered a melting point of 240 °C. Besides, in series [1], the inhibition at 10 µM was found to be 45.7%.

Molecule `Cl.O=C(CC1CSC(=NC2CCCCC2)N1C1CCCCC1)NCc1ccccc1C(F)(F)F` (stereo not shown) [KHG24547, (2-cyclohexylimino-3-cyclohexyl-1,3-thiazolidine-4-yl)-N-(2-trifluoromethylbenzyl)-acetamide hydrochloride] registered a melting point of 180 °C. Further, the inhibition at 10 µM in series [1] came out at 51.1%.

`CN1C(=NC2CCCCCC2)SCC1C(=O)Nc1cc(F)ccc1F.Cl` (stereo not shown) [KHG24626, (2-cycloheptylimino-3-methyl-1,3-thiazolidine-4-yl)-N-(2,5-difluorophenyl)-carboxamide hydrochloride] gave a melting point of 187.9 °C. For the same molecule, the inhibition at 10 µM in series [1] came out at 42.6%.

`CN1C(=NC2CCCCCC2)SCC1C(=O)Nc1ccc(F)c(F)c1` (stereo not shown) [KHG24627, (2-cycloheptylimino-3-methyl-1,3-thiazolidine-4-yl)-N-(3,4-difluorophenyl)-carboxamide] displayed a melting point of 209.6 °C. Besides, the inhibition at 10 µM in series [1] came to 48.5%.

Turning to `Cc1ccc(NC(=O)C2CSC(=NC3CCCCCC3)N2C)cc1.Cl` (stereo not shown) [KHG24629, (2-cycloheptylimino-3-methyl-1,3-thiazolidine-4-yl)-N-(4-methylphenyl)-carboxamide hydrochloride], the melting point is 202.1 °C. Also, the “FDSS (% inhibition)/10uM” value in series [1] was found to be 47.03%.

Take `CN1C(=NC2CCCCCC2)SCC1C(=O)Nc1cc(C(F)(F)F)cc(C(F)(F)F)c1.Cl` (stereo not shown) [KHG24632, (2-cycloheptylimino-3-methyl-1,3-thiazolidine-4-yl)-N-(3,5-ditrifluoromethylphenyl)-carboxamide hydrochloride]: the melting point worked out at 202 °C. Further, the “FDSS (% inhibition)/10uM” value in series [1] was found to be 57.06%.

`CN1C(=NC2CCCCCC2)SCC1C(=O)Nc1ccc(Br)cc1` (stereo not shown) [KHG24633, (2-cycloheptylimino-3-methyl-1,3-thiazolidine-4-yl)-N-(4-bromophenyl)-carboxamide] yielded a melting point of 109.2 °C. In series [1], the inhibition at 10 µM worked out at 40.4%.
